According to PMC9182086, “Identification of New Non-BBB Permeable Tryptophan Hydroxylase Inhibitors for Treating Obesity and Fatty Liver Disease” (Molecules, 2022):
Each block holds one molecule with its values, some of them ahead of it.

Legend:
[1] = molecular target: T1, TPH1 (Homo sapiens, UniProt P17752); assay: TPH1 enzyme inhibition, in vitro screening (BPS Bioscience kit, fluorescence); type: biochemical; conditions: for inhibition at 10 µM: 10 µM compound (stated in the cell); for inhibition at 1 µM / TPH1 Inhibition (% Inhibition at 1 µM): 1 µM compound
T1 construct: purchased BPS Bioscience
T1 sequence (P17752 1-444): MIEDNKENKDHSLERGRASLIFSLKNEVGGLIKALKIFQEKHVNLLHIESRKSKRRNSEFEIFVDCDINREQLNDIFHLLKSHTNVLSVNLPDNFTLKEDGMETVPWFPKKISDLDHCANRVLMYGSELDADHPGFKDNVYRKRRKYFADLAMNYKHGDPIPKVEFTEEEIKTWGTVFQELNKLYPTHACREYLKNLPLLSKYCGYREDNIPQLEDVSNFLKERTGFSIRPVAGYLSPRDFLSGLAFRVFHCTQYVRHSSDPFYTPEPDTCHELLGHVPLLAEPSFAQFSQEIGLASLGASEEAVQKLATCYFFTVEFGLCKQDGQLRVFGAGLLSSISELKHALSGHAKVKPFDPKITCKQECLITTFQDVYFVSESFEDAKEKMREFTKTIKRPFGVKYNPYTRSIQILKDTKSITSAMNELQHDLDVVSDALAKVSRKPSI
Experimental: Consequently, the core structure of thienopyrimidine tyrosine (derivative 6) was selected as the starting point for the synthesis, evaluating the structure-activity relationships (SAR), and optimization of TPH1 inhibitors. […]
In vitro screening was performed as described previously [PMID: 33417443]. Briefly, TPH1 enzyme activity was measured with a commercially available kit (BPS Bioscience). Compounds were dissolved in DMSO (Sigma). Then, 10 μL of the compound was dispensed into a 96-well microplate, and 40 μL of the TPH1 enzyme solution (320 ng enzyme/reaction) was added. Then, 50 μL of the TPH1 reaction solution was added, and the microplate was sealed with aluminum foil. The microplate was immediately cooled to 4 °C, gently shaken, and incubated for 4 h. After a defined time, 10 μL of the TPH1 quench solution was added. Then, the fluorescence was measured with a Flexstation3 microplate reader at 300 nm for excitation and 360 nm for emission. All experiments were performed in triplicate.

[2] = system: high-fat diet (HFD) fed mice; design: method as in PMID 25864946, PMID 25485911; conditions: cited from earlier work
[3] = PAMPA-BBB permeability; type: in vitro ADME; conditions: high permeation predicted > 4.0, low < 2.0, read-out: BBB Permeability Pe
Description: Based on the in vitro data, compound 18i was selected for […] the in vitro BBB permeability. Several in vitro methods and computational models have been used in drug discovery to predict the potential of a drug to penetrate the BBB [15, 16, 17, 18, 19, 20, 21]. The parallel artificial membrane permeation assay (PAMPA) was used to evaluate the BBB permeability of the selected compounds. The PAMPA-BBB assay is advantageous because it predicts passive penetration at the blood-brain barrier with high success, high throughput, low cost, and high reproducibility.
PAMPA was conducted with a […] PAMPA sandwich (pION, Inc., Billerica, MA, USA) consisting of a 96-well filter plate (0.45 μm PVDF membrane) and a 96-well polystyrene donor plate. Test compounds were prepared in 10 mM stock solution with DMSO and diluted to a working solution of 50 μM concentration using a phosphate buffered saline (PBS) buffer. To form lipid membranes in the acceptor plate, 5 μL GIT-0 lipid (pION, Inc., Billerica, MA, USA) was dropped and semi-dried on the bottom side of the 0.45 μm PVDF membrane. The donor plate was prepared by the addition of 200 μL of working solution. […] To acquire the peak area of range from 230 to 500 nm, absorbance scans of PBS, acceptor, donor, and working solution were carried out with an Epoch ELISA reader (BioTek Instruments Inc., Winooski, VT, USA). […]

[4] = system: HFD-fed C57BL/6J mice; assay: In vivo efficacy test in high-fat diet fed mice; design: species or system mouse; conditions: vs vehicle
Experimental: All animal study protocols were approved by the Institutional Animal Care and Use Committee at the Korea Advanced Institute of Science and Technology. Male C57BL/6J mice were purchased from SLC (Shizuoka, Japan) and acclimatized for a week. Mice were housed in a humidity and temperature-controlled environment under a 12 h light-dark cycle with ad libitum access to water and food. After acclimatization, male mice were fed a high-fat diet (HFD, 60% fat calories, Research diet; New Brunswick, NJ) and received daily treatment with TPH1 inhibitors. […] Compound 18i was dissolved in 5% dimethyl sulfoxide (DMSO) (Sigma, St. Louis, MO, USA) and 25% β-cyclodextrin (Sigma, St. Louis, MO, USA). Vehicle or compound 18i (100 mg kg^−1) was injected intraperitoneally in mice for 10 days after two weeks of HFD feeding. Both compounds 19 and 21 were prepared in 10% DMSO and 10% Kolliphor EL (Sigma, St. Louis, MO, USA). Vehicle and 100 mg kg^−1 of compound 19 or compound 21 were administered daily by intraperitoneal injection or oral feeding, respectively, concomitant to the initiation of HFD feeding. For analyzing blood glucose concentration, glucose in blood collected from the tail vein was measured after fasting mice for 16 h using a Gluco Dr. Top glucometer (Allemedicus, Anyang, Korea). Body weight was measured daily and mice were sacrificed for harvesting adipose tissue and liver.
Tissue samples were fixed in 10% formalin, embedded in paraffin, and cut into 5 μm thick sections, followed by deparaffinization and rehydration for H&E staining and UCP1 immunohistochemistry. After heat-induced antigen retrieval with a citrate buffer (pH 6.0) for 10 min at 95°C, tissue sections were incubated with BLOXALL Blocking solution (Vector Laboratories, Burlingame, CA, USA) to block endogenous peroxidase, followed by incubation with 2% normal goat serum in phosphate-buffered saline (PBS) for 30 min at room temperature to block nonspecific binding. Sections were incubated overnight with the anti-UCP1 primary antibody diluted 1:200 in 2% normal goat serum in PBS (Abcam, Cambridge, UK) at 4 °C, followed by 30 min incubation with biotinylated anti-rabbit IgG secondary antibody diluted 1:400 in PBS for 30 min at room temperature. After incubation with Vectastain […] reagent (Vector Laboratories) for 30 min, peroxidase activity was visualized with 3,3′-diaminobenzidine substrates (Vector Laboratories). For measuring average adipocyte size, we analyzed three random fields of H&E stained micrographs per adipose tissue sample from two representative mice of each group using AdipoCount software.
Fresh liver tissues were flash frozen in O.C.T. compound (Sakura Finetek, Torrance, CA, USA) and 10 μm cryostat sections were collected on glass slides. Sections were allowed to air-dry for 1 h, rinsed with PBS for 5 min, and washed with distilled water for 5 min. After washing, sections were placed in 30% isopropanol for 5 min, 60% isopropanol for 5 min twice, and then stained in Oil Red O solution (0.5% Oil red O (Sigma, St. Louis, MO, USA) dissolved in 60% isopropanol) for 15 min. The stained sections were rinsed twice with distilled water, mounted, coverslipped, and documented using bright field microscopy.

TPH1 inhibitory activity (in words) [1]: completely lost their activity | inhibition at 10 µM [1]: 1.2%
SMILES: N[C@@H](Cc1ccc(-c2csc3c(OC(c4ccc(-c5ccccc5)cc4)C(F)(F)F)ncnc23)cc1)C(=O)O (some centres unmarked) [Compound 18d]

inhibition at 1 µM [1]: 41%
SMILES: N[C@@H](Cc1ccc(-c2csc3c(OC(c4ccc(Cl)cc4-c4ccccc4)C(F)(F)F)ncnc23)cc1)C(=O)O (some centres unmarked) [Compound 18f]

inhibition at 1 µM [1]: 10%
SMILES: C[C@@H](Nc1ncnc2c(-c3ccc(C[C@H](N)C(=O)O)cc3)csc12)c1ccc2ccccc2c1 [Compound 18b]

inhibition at 1 µM [1]: 12%
SMILES: N[C@@H](Cc1ccc(-c2csc3c(O[C@H](c4ccc(Cl)cc4-c4ccoc4)C(F)(F)F)ncnc23)cc1)C(=O)O [Compound 18g]

inhibition at 1 µM [1]: 25% | inhibition at 100 µM ([1]; 100 µM compound): 90%
SMILES: N[C@@H](Cc1ccc(-c2csc3c(NCc4ccc(-c5ccccc5)cc4)ncnc23)cc1)C(=O)O [Compound 18a]

inhibition at 1 µM [1]: 76%
SMILES: N[C@@H](Cc1ccc(-c2csc3c(OC(c4ccccc4-c4ccccc4)C(F)(F)F)ncnc23)cc1)C(=O)O (some centres unmarked) [Compound 18e]

TPH1 inhibitory activity (in words) [1]: completely lost their activity | inhibition at 10 µM [1]: 2.5%
SMILES: Cl.N[C@@H](Cc1ccc(-c2csc3c(OC(c4ccccc4)C(F)(F)F)ncnc23)cc1)C(=O)O (some centres unmarked) [Compound 18c]

IC50 [1]: 263 nM | inhibition at 1 µM [1]: 78%
SMILES: N[C@@H](Cc1ccc(-c2csc3c(O[C@H](c4ccc(Cl)cc4C4=CCCOC4)C(F)(F)F)ncnc23)cc1)C(=O)O [Compound 18h]

TPH1 inhibitory activity (in words) [1]: weak activity | inhibition at 100 µM ([1]; 100 µM compound): 49%
SMILES: Nc1ncnc2c(-c3ccc(C[C@H](N)C(=O)O)cc3)csc12 [Compound 15a]

TPH1 inhibitory activity (in words) [1]: weak activity | inhibition at 100 µM ([1]; 100 µM compound): 33%
SMILES: N[C@@H](Cc1ccc(-c2csc3c(O)ncnc23)cc1)C(=O)O [Compound 15b]

Continued, molecule first:

SMILES: N[C@@H](Cc1ccc(Oc2ncnc3c(-c4cccc(OCc5ccccc5)c4)csc23)cc1)C(=O)O [Compound 11b]
inhibition at 100 µM ([1]; 100 µM compound): 94% | TPH1 Inhibition (% Inhibition at 100 µM) ([1]; 100 µM compound, 100 µM): 92%

SMILES: NC(Cc1ccc(Cl)cc1)C(=O)O (centres unmarked) [pCPA, para-chlorophenylalanine, reference compound]
Protection against diet-induced obesity (body weight gain, lipogenesis in adipose tissue) [2]: protect against diet-induced obesity in vivo | inhibition at 1 µM [1]: < 5% | inhibition at 100 µM ([1]; 100 µM compound): 25% | Papp at 4 h, 50 µM [3]: 1.85 ×10⁻⁶ cm/s

SMILES: Nc1nc(OC(c2ccc(-c3cccc(F)c3)cc2)C(F)(F)F)cc(-c2ccc(C[C@H](N)C(=O)O)cc2)n1 (stereo partly drawn) [LP533401, 4-[2-amino-6-[2,2,2-trifluoro-1-(3’-fluoro[1,1’-biphenyl]-4-yl)ethoxy]-4-pyrimidinyl]-L-phenylalanine, reference compound]
Protection against diet-induced obesity (body weight gain, lipogenesis in adipose tissue) [2]: protect against diet-induced obesity in vivo

SMILES: CCOC(=O)[C@@H](N)Cc1ccc(-c2csc3c(O[C@H](c4ccc(Cl)cc4-n4ccc(C)n4)C(F)(F)F)ncnc23)cc1.Cl [Compound 19, ethyl (S)-2-amino-3-(4-(4-((R)-1-(4-chloro-2-(3-methyl-1H-pyrazol-1-yl)phenyl)-2,2,2-trifluoroethoxy)thieno[3,2-d]pyrimidin-7-yl)phenyl)propanoate hydrochloride]
IC50 [1]: 994 nM | TPH1 Inhibition (% Inhibition at 1 µM) [1]: 60% | Body weight gain ([4]; 100 mg/kg ip daily for 11 days from start of HFD): attenuated body weight gain | Adipocyte size in eWAT and iWAT (histology) ([4]; 100 mg/kg ip daily): decreased adipocyte size | UCP1 content in iWAT (immunohistochemistry) ([4]; 100 mg/kg ip daily): higher content of mitochondrial uncoupling protein 1 (UCP1)

SMILES: N[C@@H](Cc1ccc(Oc2ncnc3c(-c4ccc(O)cc4)csc23)cc1)C(=O)O [Compound 9a]
inhibition at 100 µM ([1]; 100 µM compound): 45%

SMILES: Cc1ccn(-c2cc(Cl)ccc2[C@@H](Oc2nc(N)nc3c(-c4ccc(C[C@H](N)C(=O)O)cc4)csc23)C(F)(F)F)n1 [Compound 30]
IC50 [1]: 208 nM | inhibition at 1 µM [1]: 91%

SMILES: CCOC(=O)[C@@H](N)Cc1ccc(-c2csc3c(O[C@H](c4ccc(Cl)cc4-n4ccc(C)n4)C(F)(F)F)ncnc23)cc1 [Compound 20, ethyl (S)-2-amino-3-(4-(4-((R)-1-(4-chloro-2-(3-methyl-1H-pyrazol-1-yl)phenyl)-2,2,2-trifluoroethoxy)thieno[3,2-d]pyrimidin-7-yl)phenyl)propanoate]
TPH1 Inhibition (% Inhibition at 1 µM) ([1]; 1 µM): 79%

SMILES: CCOC(=O)[C@@H](N)Cc1ccc(-c2csc3c(O[C@H](c4ccc(Cl)cc4-n4ccc(C)n4)C(F)(F)F)ncnc23)cc1 [Compound 21, ethyl (S)-2-amino-3-(4-(4-((R)-1-(4-chloro-2-(3-methyl-1H-pyrazol-1-yl)phenyl)-2,2,2-trifluoroethoxy)thieno[3,2-d]pyrimidin-7-yl)phenyl)propanoate hippurate]
TPH1 Inhibition (% Inhibition at 1 µM) ([1]; 1 µM): 92% | Body and liver weights ([4]; 100 mg/kg oral daily, 6 weeks): without significant changes in body and liver weights | Lipid accumulation in liver tissue (H&E, oil red O) ([4]; 100 mg/kg oral daily, 6 weeks): dramatically decreased lipid accumulation in liver tissue

SMILES: N[C@@H](Cc1ccc(Oc2ncnc3c(-c4ccc(OCc5ccccc5)cc4)csc23)cc1)C(=O)O [Compound 11a]
inhibition at 100 µM ([1]; 100 µM compound): 58%

SMILES: N[C@@H](Cc1ccc(Oc2ncnc3c(Br)csc23)cc1)C(=O)O [Compound 6]
inhibition at 100 µM ([1]; 100 µM compound): > 60%

SMILES: N[C@@H](Cc1ccc(Oc2ncnc3c(-c4cccc(O)c4)csc23)cc1)C(=O)O [Compound 9b]
inhibition at 100 µM ([1]; 100 µM compound): 82%
